# Source: patent publication US6506555B1, “Use of HIV protease inhibiting compounds” (Institut National de la Sante et de la Recherche Medicale …, priority 1998, dated 2003)
# Read-outs that look alike come from different tables or passages of the source.
# Columns and labels:
# Hybridoma FT7.9 (MHC-I) = experiment: IL-2 release by hybridoma FT7.9 cocultured with NOD pancreatic islets; format: cell-based, NOD mice
# Experimental: Ritonavir (0.6 mg per 10 g of body weight per day) or a placebo (phosphate buffer PBS) was administered by the intraperitoneal route to NOD mice. The pancreatic islets were removed and cultured for 24 hours in the presence or in the absence of 2.5 μg/ml of ritonavir. The cells were then cocultured with MHC-1-restricted hybridomas (FT6.9 and FT7.9 for 24 hours). The quantity of IL-2 was assayed in the supernatant. The following tables present the quantities of IL-2 measured by a test of proliferation (cpm×10^−3).
# [1] = Experimental allergic encephalitis in rats; format: in vivo, Lewis rats; design: key to clinical score of EAE: 1: weakness of the movements of the tail; 2: incomplete paralysis of the hindquarters; 3: complete paralysis of the hindquarters; 4: incomplete paralysis of the forequarters; 5: total immobility
# Experimental: Experimental allergic encephalitis in rats is the only model of multiple sclerosis in humans. The guinea pig MBP (Myelin Basic Protein) is administered to 7-week old female Lewis rats by a subcutaneous injection, into the footpad, of 50 μg of MBP in 100 μl of complete Freund's adjuvant supplemented with 4 μg/ml of mycobacteria. There are administered, in addition, to these rats, daily, either 1 mg, 5 mg or 10 mg of ritonavir, per animal, or a placebo (phosphate buffer) of MBP injection until the animals not treated with ritonavir are killed. The clinical scores measuring the progression of the experimental allergic […] following: 1: weakness of the movements of the tail; 2: incomplete paralysis of the hindquarters; 3: complete paralysis of the hindquarters; 4: incomplete paralysis of the forequarters; and 5: total immobility. About eight days after this immunization with MBP, the control rats started to show the first stages of paralysis (temporary) due to the immune response caused by the administration of myelin.
# [2] = Experimental allergic encephalitis in mice and transfer of protection; format: in vivo
# Experimental: In this experiment, healthy recipient mice not treated with ritonavir received, by the intravenous and/or peritoneal route, cells of the lymph nodes and of the spleen obtained from donor mice treated with ritonavir and having been subjected to the protocol for induction of EAE described above in Example a) and adapted to mice.
# The popliteal, inguinal and mesenteric ganglia and the spleen are removed at D10 after injection of MBP, cultured in the presence of 50 μg/ml of MBP. On the third day of culture, the nonadherent cells are recovered, passed over Ficoll and injected into the recipient mice (10×10^6 injected cells).
# MC57 fibroblasts (H-2b) = conditions: MC57 cells infected with LCMV, ritonavir 5 μg/ml for 36 hours
# [3] = in vivo PBS, in vitro ritonavir 2.5 μg/ml
# [4] = in vivo ritonavir, in vitro PBS
# [5] = in vivo ritonavir, in vitro ritonavir
# [6] = patients with hepatic cytolysis (cytolysis +)
# [7] = patients without hepatic cytolysis (cytolysis −)
smiles,measurement,setting,value
CC(C)c1nc(CN(C)C(=O)N[C@H](C(=O)N[C@@H](Cc2ccccc2)C[C@H](O)[C@H](Cc2ccccc2)NC(=O)OCc2cncs2)C(C)C)cs1 [ritonavir],percentage in brackets (reduction of IL-2 versus PBS/PBS),Hybridoma FT7.9 (MHC-I); [3],53%
same,quantity of IL-2 measured by a test of proliferation,Hybridoma FT7.9 (MHC-I); [3],43 cpm×10^−3
same,percentage in brackets (reduction of IL-2 versus PBS/PBS),Hybridoma FT7.9 (MHC-I); [4],24%
same,quantity of IL-2 measured by a test of proliferation,Hybridoma FT7.9 (MHC-I); [4],70 cpm×10^−3
same,percentage in brackets (reduction of IL-2 versus PBS/PBS),Hybridoma FT7.9 (MHC-I); [5],20%
same,quantity of IL-2 measured by a test of proliferation,Hybridoma FT7.9 (MHC-I); [5],74 cpm×10^−3
same,clinical score of EAE,[1]; other rats treated with 10 mg per animal daily,1
same,development of the disease (EAE),[1]; rats treated with 10 mg per animal daily,two did not develop the disease
same,appearance of the first signs of paralysis,[1]; rats treated with 1 and 5 mg per animal daily,delayed
same,symptoms of EAE in recipient mice after transfer of cells from donor mice treated with ritonavir,"[2]; 10×10^6 lymph node and spleen cells injected, EAE induction at D30 after the transfer",no symptom of EAE
same,EAE in mice treated with ritonavir,"[2]; mouse, in vivo",Results similar to those described in rats
same,lysis by the anti-LCMV cytotoxic T lymphocytes,MC57 fibroblasts (H-2b),strongly inhibits
same,anti-HCV antibody titre,HCV; during the therapy,increases only in the patients exhibiting cytolysis
same,patients in whom the ALAT concentrations increased,HCV; patients coinfected with HCV and HIV,57%
same,"Ac index (variation of anti-HCV antibody titre, ratio of the optical densities)",HCV; [6],2.19(+/−1.68)
same,variation of CD4,HCV; [6],109.4(+/−113) cells /mm^3
same,variation of CD8,HCV; [6],203.6(+/−650) cells /mm^3
same,variation of HCV-VL (viral HCV load),HCV; [6],+0.61 log10 of copies of RNA/ml
same,variation of HCV-VL (viral HCV load),"HCV; patients with hepatic cytolysis (cytolysis +), listed as RTN",0.61(+/−0.3) log10 of copies of RNA/ml
same,"Ac index (variation of anti-HCV antibody titre, ratio of the optical densities)",HCV; [7],0.98(+/−0.24)
same,variation of CD4,HCV; [7],88.3(+/−170) cells /mm^3
same,variation of CD8,HCV; [7],281.8(+/−394) cells /mm^3
same,variation of HCV-VL (viral HCV load),HCV; [7],+0.22 log10 of copies of RNA/ml
same,variation of HCV-VL (viral HCV load),"HCV; patients without hepatic cytolysis (cytolysis −), listed as RTN",0.22(+/−0.35) log10 of copies of RNA/ml
same,"ALAT concentration peak, mean maximum value","HCV; ritonavir group, third month",418 IU/1
same,"ALAT concentration peak, variation","HCV; ritonavir group, third month",96-1570 IU/1
